Bridge positions count the residues as written; N and C are the ends. Ends that are not written are not given here.
Assays:
CD31 = CD31 staining of tumor samples (tumor vessels); type: in vivo, mice; settings: 5 weeks of treatment; vs control animals
Source text: (§1) Tumor cells (mixed cell populations) obtained from control and βIIPKC peptide inhibitor βIIV5-3-treated animals following 5-weeks of treatment were subjected to histological analysis to determine the effect of the βIIPKC peptide inhibitor on apoptosis (data not shown). CD31 is a tumor endothelial marker used to identify […] in a sample. CD31 (PECAM-1) has been implicated in angiogenesis, apoptosis, cell migration, modulation of integrin-mediated cell adhesion, transendothelial migration, negative regulation of immune cell signaling, autoimmunity, macrophage phagocytosis, IgE-mediated anaphylaxis, and thrombosis. […]
(§2) Tumor volumes were measured periodically (e.g., weekly). […] Angiogenesis and tumor cell proliferation were measured at six weeks by deuterium analyses using gas chromatography-mass spectrometry (GC-MS). Ribose derivatives extracted from DNA that incorporated deuterium during cell division can be identified by GC-MS and can be quantitated over total ribose from all DNA. This measurement allows the calculation of “newly synthesized DNA” during the deuterated water administration (i.e., pulse), from which the fractional turnover rate can be calculated using an exponential equation. Levels of tumor cell markers, angiogenesis-related polypeptides, and apoptosis-related proteins were evaluated by Western blot and immunohistochemistry.

[1] = test system: tumor endothelial cells (TEC); assay: Tumor endothelial cell proliferation, deuterium GC-MS fractional turnover; type: in vivo, mice; settings: three weeks of continuous treatment; vs saline
Description: Tumor volumes were measured periodically (e.g., weekly). […] Deuterated water was given to the animals about one week prior to sacrifice to facilitate the measurement of cell proliferation. Angiogenesis and tumor cell proliferation were measured at six weeks by deuterium analyses using gas chromatography-mass spectrometry (GC-MS). Ribose derivatives extracted from DNA that incorporated deuterium during cell division can be identified by GC-MS and can be quantitated over total ribose from all DNA. This measurement allows the calculation of “newly synthesized DNA” during the deuterated water administration (i.e., pulse), from which the fractional turnover rate can be calculated using an exponential equation. Levels of tumor cell markers, angiogenesis-related polypeptides, and apoptosis-related proteins were evaluated by Western blot and immunohistochemistry.

[2] = test system: tumor cells (mixed cell populations); assay: Apoptosis histology of tumor samples (TUNEL, Hoechst, cleaved caspase 3); type: in vivo, mice
Source text: as §1, §2

HIF-1a = assay: Immunoblot of HIF-1a in tumor cell homogenate, normalized for GAPDH; type: in vivo, mice; settings: tumor cells, 5 weeks of treatment; vs saline, p<0.05 (FIG. 24E)
Source text: FIGS. 24A-24D show the results of immunoblot analysis total cell homogenate obtained from tumor cells from saline control (FIGS. 24 A and 24C) and δPKC activator (FIGS. 24 B and 24D) treated animals (5 weeks). The blots were probed with an antibody specific for hypoxia-inducible factors (HIF-1a, FIGS. 24A and 24B) or an antibody specific for GAPDH as a control (FIGS. 24C and 24D). FIG. 24E is a graph showing the relative levels of HIF-1a (normalized for GADPH) from FIGS. 24A-24D.
Tumor volumes were measured periodically (e.g., weekly). The mice were typically sacrificed after 5 weeks of treatment. […] Angiogenesis and tumor cell proliferation were measured at six weeks by deuterium analyses using gas chromatography-mass spectrometry (GC-MS). Ribose derivatives extracted from DNA that incorporated deuterium during cell division can be identified by GC-MS and can be quantitated over total ribose from all DNA. This measurement allows the calculation of “newly synthesized DNA” during the deuterated water administration (i.e., pulse), from which the fractional turnover rate can be calculated using an exponential equation. Levels of tumor cell markers, angiogenesis-related polypeptides, and apoptosis-related proteins were evaluated by Western blot and immunohistochemistry. […]

[3] = test system: vascular endothelial growth factor (VEGF); assay: VEGF concentration in prostate cancer tumor cells (ELISA); type: in vivo, mice; settings: three weeks of continuous treatment; vs saline
εPKC = molecular target: T1, εPKC (Homo sapiens, UniProt Q02156); assay: Immunoblot of particulate vs total εPKC in tumor cells from treated mice; type: in vivo; settings: tumor cells from treated animals; vs control (FIG. 19E)
T1 construct: endogenous in cells; host or cells: PC3 human prostate cancer xenograft grown in nude mice
T1 sequence (Q02156 1-737): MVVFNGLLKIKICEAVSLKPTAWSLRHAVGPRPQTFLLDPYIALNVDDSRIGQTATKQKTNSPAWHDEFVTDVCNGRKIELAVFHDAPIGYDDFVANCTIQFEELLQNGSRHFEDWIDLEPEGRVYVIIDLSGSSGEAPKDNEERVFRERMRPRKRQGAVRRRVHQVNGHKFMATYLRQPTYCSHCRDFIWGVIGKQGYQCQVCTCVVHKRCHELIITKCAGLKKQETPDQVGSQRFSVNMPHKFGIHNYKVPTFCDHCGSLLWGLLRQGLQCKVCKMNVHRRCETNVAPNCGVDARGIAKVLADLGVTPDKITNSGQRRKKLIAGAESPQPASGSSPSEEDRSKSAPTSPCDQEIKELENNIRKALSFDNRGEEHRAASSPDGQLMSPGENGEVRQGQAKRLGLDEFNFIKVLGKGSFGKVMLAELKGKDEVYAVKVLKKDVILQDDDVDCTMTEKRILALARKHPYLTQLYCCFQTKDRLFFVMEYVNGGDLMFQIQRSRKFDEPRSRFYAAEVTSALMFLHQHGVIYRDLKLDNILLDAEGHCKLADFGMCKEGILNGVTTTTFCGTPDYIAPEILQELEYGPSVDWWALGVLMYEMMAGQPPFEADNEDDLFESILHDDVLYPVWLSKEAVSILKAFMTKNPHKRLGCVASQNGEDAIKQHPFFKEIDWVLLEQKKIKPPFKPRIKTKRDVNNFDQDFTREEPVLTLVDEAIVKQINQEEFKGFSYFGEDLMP
Description: (§3) Male nude mice were subcutaneously injected with human prostate cancer cells (PC3) at six weeks of age. […]
(§4) Tumor volumes were measured periodically (e.g., weekly). […] Angiogenesis and tumor cell proliferation were measured at six weeks by deuterium analyses using gas chromatography-mass spectrometry (GC-MS). Ribose derivatives extracted from DNA that incorporated deuterium during cell division can be identified by GC-MS and can be quantitated over total ribose from all DNA. This measurement allows the calculation of “newly synthesized DNA” during the deuterated water administration (i.e., pulse), from which the fractional turnover rate can be calculated using an exponential equation. Levels of tumor cell markers, angiogenesis-related polypeptides, and apoptosis-related proteins were evaluated by Western blot and immunohistochemistry. […]

[4] = test system: human prostate cancer cells (PC3); assay: PC3 prostate tumor xenograft growth in nude mice, osmotic pump delivery; type: in vivo
Source text: Male nude mice were subcutaneously injected with human prostate cancer cells (PC3) at six weeks of age. After one week, the animals were implanted with an ALZEJ® (Alza Corporation, Mountain View, Calif.) osmotic pump for delivery of a control saline solution, a control peptide of TAT (residues 47-57, Y[…] ID NO:85), or an inhibitor or activator of PKC (e.g., δV1-1 attached to TAT (YGRKKRRQRRR-CC-SFNSYELGSL; SEQ ID NO: 143), δV1-7 attached to TAT (YGRKKRRQRRR-CC-MRAAEDPM; SEQ ID NO: 144), or βIIV5-3 attached to TAT (YGRKKRRQRRR-CC-QEVIRN; SEQ ID NO: 145). The rate of administration was 0.5 μl/hr, unless otherwise noted. Typical inhibitor or activator concentrations were 3-30 mM. In some cases, a lower concentration was administered initially (e.g., 3 mM) followed by a higher concentration (e.g., 30 mM) in the later weeks of treatment.
(§5) Tumor volumes were measured periodically (e.g., weekly). The mice were typically sacrificed after 5 weeks of treatment. Deuterated water was given to the animals about one week prior to sacrifice to facilitate the measurement of cell proliferation. Angiogenesis and tumor cell proliferation were measured at six weeks by deuterium analyses using gas chromatography-mass spectrometry (GC-MS). Ribose derivatives extracted from DNA that incorporated deuterium during cell division can be identified by GC-MS and can be quantitated over total ribose from all DNA. This measurement allows the calculation of “newly synthesized DNA” during the deuterated water administration (i.e., pulse), from which the fractional turnover rate can be calculated using an exponential equation. Levels of tumor cell markers, angiogenesis-related polypeptides, and apoptosis-related proteins were evaluated by Western blot and immunohistochemistry.

Ki67 = Ki67 staining of tumor tissue; type: in vivo, mice; settings: vs saline
Description: Tumor tissue obtained from animals treated with a control saline solution or the δPKC activator peptide were stained with an antibody specific for Ki67 to detect proliferating cells in all phases of the cell cycle (i.e., G1, S-, G2-, and M-phase), but not in resting cells (G0-phase).
as §5

δPKC = molecular target: T2, δPKC (Homo sapiens, UniProt Q05655); assay: Immunoblot of particulate vs total δPKC in tumor cells from treated mice; type: in vivo; settings: treated for 5 weeks, vs control (FIG. 18E)
T2 construct: endogenous in cells; host or cells: PC3 human prostate cancer xenograft grown in nude mice
Description: as §3, §4

tumor cells (TC) = assay: Tumor cell proliferation, deuterium GC-MS fractional turnover; type: in vivo, mice
Description: as §5

T2 sequence (Q05655 whole entry): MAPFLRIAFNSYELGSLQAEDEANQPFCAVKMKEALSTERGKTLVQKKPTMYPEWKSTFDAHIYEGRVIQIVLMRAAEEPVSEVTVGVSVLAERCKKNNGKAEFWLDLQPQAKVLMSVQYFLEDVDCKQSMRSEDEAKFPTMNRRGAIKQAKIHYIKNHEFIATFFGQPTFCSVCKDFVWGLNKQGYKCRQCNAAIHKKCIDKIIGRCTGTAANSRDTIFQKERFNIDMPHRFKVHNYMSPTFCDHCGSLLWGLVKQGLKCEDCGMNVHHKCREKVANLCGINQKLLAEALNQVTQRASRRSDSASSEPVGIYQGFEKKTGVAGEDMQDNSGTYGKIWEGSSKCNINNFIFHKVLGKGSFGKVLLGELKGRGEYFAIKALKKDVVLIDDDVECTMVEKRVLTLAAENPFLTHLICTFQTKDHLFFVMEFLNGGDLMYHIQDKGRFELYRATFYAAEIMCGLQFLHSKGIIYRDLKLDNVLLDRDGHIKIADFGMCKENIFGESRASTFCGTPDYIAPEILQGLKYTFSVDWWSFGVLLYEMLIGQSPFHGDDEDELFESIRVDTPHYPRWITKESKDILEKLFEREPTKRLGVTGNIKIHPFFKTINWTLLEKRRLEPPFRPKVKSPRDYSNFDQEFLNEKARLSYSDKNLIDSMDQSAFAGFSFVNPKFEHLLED

“δV1-7: activator of δPKC, amino acid sequence MRAAEDPM (SEQ ID NO: 146), attached to TAT (YGRKKRRQRRR-CC-MRAAEDPM; SEQ ID NO: 144) (YGRKKRRQRRRCCMRAAEDPM; disulfide 12-13 (inferred))” was tested, and the “CD31 staining (tumor vascularization)” value (CD31) was “several-fold increase”, the “rate of tumor endothelial cell (TEC) proliferation, fractional turnover per day” value [1] was “similar” and the “percentage of cells stained by TUNEL labeling” value ([2]; mixed tumor cell population, 5 weeks of treatment, vs saline (FIG. 26)) was “increased TUNEL labeling only slightly”. The “tumor volume as a function of the percent of TUNEL-positive cells” value ([2]; vs saline control animals (FIG. 27A-27C)) was “larger tumor volumes for a given percent of TUNEL-positive cells”, the “levels of HIF-1a normalized for GAPDH” value (HIF-1a) was “several-fold increase” and the “concentration of VEGF in prostate cancer tumor cells” value [3] was “not increased”. The “levels of particulate εPKC compared to total εPKC” value (εPKC) was “do not substantially change”, the tumor mass ([4]; 3 weeks of treatment, vs saline (FIG. 25C)) was “decreased” and the tumor volume ([4]; continuous treatment, vs saline and Tat control groups, p=0.004 (FIG. 20)) was “significantly increased tumor volume”. For the same substance, the tumor volume ([4]; three weeks of treatment, peptide conjugated to TAT, vs TAT control (FIG. 17)) was “increase in tumor volume”, the “Ki67 staining (proliferating cells)” value (Ki67) was “increased Ki67 staining” and the “levels of particulate δPKC compared to total δPKC” value (δPKC) was “approximately doubled”. For the same substance, the “rate of tumor cell proliferation” value (tumor cells (TC); 5 weeks of treatment (end-stage), vs saline (FIG. 22)) was “substantial increase” and the “rate of tumor cell (TC) proliferation, fractional turnover per day” value (tumor cells (TC); three weeks of continuous treatment, vs saline) was “appeared to decrease”.

Reference: patent US20090048174A1, “Methods for inhibiting angiogenesis and tumor growth by inhibition of beta or delta protein kinase C” (priority 2006, published 2009)
